Patent US12590067B2, “Herbicidal cyclohexanedione derivatives” (SYNGENTA CROP PROTECTION AG, priority 2019, dated 2026)

What was measured:
Assay in all cases: Glasshouse herbicidal test, pre- and post-emergence, percentage damage to the plant
Format in all cases: in vivo
Avena fatua (AVEFA) = settings: 250 g/h, evaluated after 13 days; for AVEFA POST percentage damage caused to the plant (five-point scale): post-emergence; for AVEFA PRE percentage damage caused to the plant (five-point scale): pre-emergence
Procedure: (§1) Seeds of a variety of test species are sown in standard soil in pots (Lolium perenne (LOLPE), Setaria faberi (SETFA), Alopecurus myosuroides (ALOMY), Echinochloa crus-galli (ECHCG), Avena fatua (AVEFA)). After cultivation for one day (pre-emergence) or after 8 days cultivation (post-emergence) under controlled conditions in a glasshouse (at 24/16° C., day/night; 14 hours light; 65% humidity), the plants are sprayed with an aqueous spray solution derived from the formulation of the technical active ingredient in acetone/water (50:50) solution containing 0.5% Tween 20 (polyoxyethelyene sorbitan monolaurate, CAS RN 9005-64-5). Compounds are applied at 250 g/h. The test plants are then grown in a glasshouse under controlled conditions in a glasshouse (at 24/16° C., day/night; 14 hours light; 65% humidity) and watered twice daily. After 13 days for pre and post-emergence, the test is evaluated for the percentage damage caused to the plant. The biological activities are shown in the following table on a five-point scale (5=80-100%; 4=60-79%; 3=40-59%; 2=20-39%; 1=0-19%).

[1] = tested on: Echinochloa crus-galli (ECHCG); settings: 250 g/h, evaluated after 13 days; for ECHCG POST percentage damage caused to the plant (five-point scale): post-emergence; for ECHCG PRE percentage damage caused to the plant (five-point scale): pre-emergence
Procedure: as §1

[2] = tested on: Alopecurus myosuroides (ALOMY); settings: 250 g/h, evaluated after 13 days; for ALOMY POST percentage damage caused to the plant (five-point scale): post-emergence; for ALOMY PRE percentage damage caused to the plant (five-point scale): pre-emergence
Procedure: as §1

Lolium perenne (LOLPE) = settings: 250 g/h, evaluated after 13 days; for LOLPE POST percentage damage caused to the plant (five-point scale): post-emergence; for LOLPE PRE percentage damage caused to the plant (five-point scale): pre-emergence
Procedure: as §1

Setaria faberi (SETFA) = settings: 250 g/h, evaluated after 13 days; for SETFA POST percentage damage caused to the plant (five-point scale): post-emergence; for SETFA PRE percentage damage caused to the plant (five-point scale): pre-emergence
Procedure: as §1

Structure (SMILES)	AVEFA POST percentage damage caused to the plant (five-point scale) (Avena fatua (AVEFA))	AVEFA PRE percentage damage caused to the plant (five-point scale) (Avena fatua (AVEFA))	ECHCG POST percentage damage caused to the plant (five-point scale) [1]	ECHCG PRE percentage damage caused to the plant (five-point scale) [1]	ALOMY POST percentage damage caused to the plant (five-point scale) [2]	ALOMY PRE percentage damage caused to the plant (five-point scale) [2]	LOLPE POST percentage damage caused to the plant (five-point scale) (Lolium perenne (LOLPE))	LOLPE PRE percentage damage caused to the plant (five-point scale) (Lolium perenne (LOLPE))	SETFA POST percentage damage caused to the plant (five-point scale) (Setaria faberi (SETFA))	SETFA PRE percentage damage caused to the plant (five-point scale) (Setaria faberi (SETFA))
CC#Cc1cc(Cl)c(C2C(=O)CC3(CCN(C(=O)NC(=O)c4ccccn4)CC3)CC2=O)c(OC)c1 [Compound A11]	5 (5=80-100%)	3 (3=40-59%)	5 (5=80-100%)	5 (5=80-100%)	5 (5=80-100%)	5 (5=80-100%)	5 (5=80-100%)	5 (5=80-100%)	5 (5=80-100%)	5 (5=80-100%)
CC#Cc1cc(Cl)c(C2C(=O)CC3(CCN(C(=O)CC#N)CC3)CC2=O)c(OC)c1 [Compound A12]	5 (5=80-100%)	5 (5=80-100%)	5 (5=80-100%)	5 (5=80-100%)	5 (5=80-100%)	5 (5=80-100%)	5 (5=80-100%)	5 (5=80-100%)	5 (5=80-100%)	5 (5=80-100%)
COc1cc(-c2ccc(C#N)cn2)cc(Cl)c1C1C(=O)CC2(CCN(C(C)=O)CC2)CC1=O [Compound A13]	5 (5=80-100%)	2 (2=20-39%)	5 (5=80-100%)	5 (5=80-100%)	5 (5=80-100%)	3 (3=40-59%)	5 (5=80-100%)	1 (1=0-19%)	5 (5=80-100%)	2 (2=20-39%)
CC#Cc1cc(Cl)c(C2C(=O)CC3(CCN(C(C)=O)CC3)CC2=O)c(Cl)c1 [Compound A14]	5 (5=80-100%)	5 (5=80-100%)	5 (5=80-100%)	5 (5=80-100%)	5 (5=80-100%)	5 (5=80-100%)	5 (5=80-100%)	5 (5=80-100%)	5 (5=80-100%)	5 (5=80-100%)
CC#Cc1cc(Cl)c(C2C(=O)CC3(CCN(C(=O)CC#N)CC3)CC2=O)c(Cl)c1 [Compound A15]	5 (5=80-100%)	5 (5=80-100%)	5 (5=80-100%)	5 (5=80-100%)	5 (5=80-100%)	5 (5=80-100%)	5 (5=80-100%)	5 (5=80-100%)	5 (5=80-100%)	5 (5=80-100%)
CC#Cc1cc(Cl)c(C2C(=O)CC3(CCN(C(=O)C(F)F)CC3)CC2=O)c(Cl)c1 [Compound A16]	5 (5=80-100%)	5 (5=80-100%)	5 (5=80-100%)	5 (5=80-100%)	5 (5=80-100%)	5 (5=80-100%)	5 (5=80-100%)	5 (5=80-100%)	5 (5=80-100%)	5 (5=80-100%)
CC#Cc1cc(Cl)c(C2C(=O)CC3(CCN(C(=O)NC(=O)c4ccccn4)CC3)CC2=O)c(Cl)c1 [Compound A17]	5 (5=80-100%)	2 (2=20-39%)	5 (5=80-100%)	3 (3=40-59%)	2 (2=20-39%)	2 (2=20-39%)	5 (5=80-100%)	2 (2=20-39%)	5 (5=80-100%)	4 (4=60-79%)
CC#Cc1cc(Cl)c(C2C(=O)CC3(CCN(C(=O)COC(F)F)CC3)CC2=O)c(Cl)c1 [Compound A18]	5 (5=80-100%)	5 (5=80-100%)	5 (5=80-100%)	5 (5=80-100%)	5 (5=80-100%)	5 (5=80-100%)	5 (5=80-100%)	5 (5=80-100%)	5 (5=80-100%)	5 (5=80-100%)
COc1cc(-c2ccc(C#N)cn2)cc(Cl)c1C1C(=O)CC2(CCN(C(=O)C3CC3)CC2)CC1=O [Compound A35]	5 (5=80-100%)	5 (5=80-100%)	5 (5=80-100%)	5 (5=80-100%)	5 (5=80-100%)	5 (5=80-100%)	5 (5=80-100%)	5 (5=80-100%)	5 (5=80-100%)	5 (5=80-100%)
CC#Cc1cc(C)c(C2C(=O)CC3(CCN(C(C)=O)CC3)CC2=O)c(CC)c1 [Compound A47]	5 (5=80-100%)	5 (5=80-100%)	5 (5=80-100%)	5 (5=80-100%)	5 (5=80-100%)	5 (5=80-100%)	5 (5=80-100%)	5 (5=80-100%)	5 (5=80-100%)	5 (5=80-100%)
